The values below come from patent publication US7612201B2, “Pyrazole compounds” (Vernalis (Cambridge) Limited, priority 2002, dated 2009).

SMILES strings stand for the structures.

The target in experiment [1] is T1, yeast HSP90 (Saccharomyces cerevisiae, UniProt P02829).
T1 construct: made in house; host or cells: E. coli
Kind of experiment: Malachite green ATPase assay. As to conditions: activity range. The format is biochemical. The source says: The intrinsic ATPase activity of HSP90 may be measured using yeast HSP90 as a model system. The assay, based on the use of malachite green for the measurement of inorganic phosphate, was used to test the HSP90 inhibitory activity of the compounds of the Examples herein.
Malachite Green ATPase Assay
Chemicals are of the highest purity commercially available and all aqueous solutions are made up in AR water. Because of the need to minimise contamination with inorganic phosphate, precautions should be taken with solutions and apparatus used in the assays. Glassware and pH meters are rinsed with double distilled or deionised water before use and, wherever possible, plastic ware should be used. Gloves are worn for all procedures. • (1) Greiner 384-well (Greiner 781101) or Costar 384-well flat-bottomed polystyrene multiwell plates (VWR). • (2) Assay buffer of (a) 100 mM Tris-HCl, pH 7.4, (b) 150 mM KCl, (c) 6 mM MgCl2. Stored at room temperature. • (3) 0.0812% (w/v) malachite green (M 9636, Sigma Aldrich Ltd., Poole, UK). Stored at room temperature. • (4) 2.32% (w/v) polyvinyl alcohol USP (P 1097, Sigma Aldrich Ltd, Poole, UK) in boiling water (see Comment 1), allowed to cool, and stored at room temperature. • (5) 5.72% (w/v) ammonium molybdate in 6 M hydrochloric acid. Stored at room temperature. • (6) 34% (w/v) sodium citrate. Stored at room temperature. • (7) 100 mM ATP, disodium salt, special quality (47699, Sigma Aldrich). Stored at −20° C. • (8) E. coli expressed yeast HSP90 protein, purified >95% (see, e.g., Panaretou et al., 1998) and stored in 50 uL aliquots at −80° C.
Method • 1. Dilute test compounds to 500 μM in AR water (DMSO concentration will be 2.5%). Transfer 2.5 μl of these compounds directly from the daughter plate to the assay plate, giving a final assay concentration of 100 μM. To obtain 12 point IC50 values, perform serial dilutions 1:2 to produce a range of assay concentrations from 100 μM to 97.6 nM (2.5% DMSO), and transfer 2.5 μl of each concentration into the assay plate. Column 1 in the assay plate contains no compound, as a negative control. An additional row with no compound is also used as a background. • 2. Prepare ATP by diluting 100 mM stock to 925 μM with assay buffer, and aliquot 5 μl of diluted ATP to each well including controls (final assay concentration 370 μM). • 3. Add 5 μl of buffer to background row. • 4. Dilute enzyme preparation to 1.05 μM with assay buffer, and aliquot 5 μl into each compound well and to the negative control column. • 5. Collect the reagents to the bottom of the well, cover plate with plate seal and incubate overnight at 37 degC. • 6. First thing in the morning prepare the Malachite Green Reagent. Add 2 parts of Malachite Green Solution, 1 part of Polyvinyl Alcohol Solution, 1 part of Ammonium Molybdate Solution, and 2 parts of AR water. • 7. Invert to mix, and leave for approximately 1 hour until the colour turns from brown to golden yellow. • 8. Add 40 μl of Malachite Green Reagent to each well, allow 5 mins for colour to develop. • 9. Add 5 μl of Sodium Citrate Reagent to each well (see comment 2) • 10. Re-cover with plate seal and shake on plate shaker for at least 15 mins. • 11. Measure Absorbance at 620 nm using a suitable plate reader (e.g. Victor, Perkin Elmer Life Sciences, Milton Keynes, UK).
Comments • (1) The polyvinyl alcohol dissolves in boiling water with difficulty and stirring for 2-3 h is required. • (2) The time interval between addition of the malachite green reagent and the sodium citrate should be kept as short as possible in order to reduce the non-enzymatic hydrolysis of ATP. Once the sodium citrate is added, the colour is stable for up to 4 h at room temperature. • (3) Compounds can be added to the assay plates using a Biomek FX Robot (Beckman Coulter).

Experiment [2] in a line: Sulforhodamine B (SRB) growth inhibition assay. The format is cell-based. To be noted: SRB growth arrest assay. How it is done:
A growth inhibition assay was also employed for the evaluation of candidate HSP90 inhibitors:
Day 1 • 1) Determine cell number by haemocytometer. • 2) Using an 8 channel multipipettor, add 160 μl of the cell suspension (3600 cells/well or 2×10^4 cells/ml) to each well of a 96-well microtitre plate. • 3) Incubate overnight at 37° C. in a CO2 incubator.
Day 2 • 4) Stock solutions of drugs are prepared, and serial dilutions of each drug are performed in medium to give final concentrations in wells. • 5) Using a multipipettor, 40 μl of drug (at 5× final concentration) is added to quadruplicate wells. • 6) Control wells are at either side of the 96 well plates, where 40 μl of medium is added. • 7) Incubate plates in CO2 incubator for 4 days (48 hours).
Day 6 • 8) Tip off medium into sink and immerse plate slowly into 10% ice cold trichloroacetic acid (TCA). […] Leave for 15 mins. • 12) Wash off unbound SRB stain with four washes of 1% acetic acid. • 13) Dry plates in incubator. • 14) Solubilise SRB using 100 μl of 10 mM Tris base and put plates on plate shaker for 5 mins. • 15) Determine absorbance at 540 nm using a plate reader. Calculate mean absorbance for quadruplicate wells and express as a percentage of value for control, untreated wells. • 16) Plot % absorbance values versus log drug concentration and determine the IC50.

T1 sequence (P02829 whole entry): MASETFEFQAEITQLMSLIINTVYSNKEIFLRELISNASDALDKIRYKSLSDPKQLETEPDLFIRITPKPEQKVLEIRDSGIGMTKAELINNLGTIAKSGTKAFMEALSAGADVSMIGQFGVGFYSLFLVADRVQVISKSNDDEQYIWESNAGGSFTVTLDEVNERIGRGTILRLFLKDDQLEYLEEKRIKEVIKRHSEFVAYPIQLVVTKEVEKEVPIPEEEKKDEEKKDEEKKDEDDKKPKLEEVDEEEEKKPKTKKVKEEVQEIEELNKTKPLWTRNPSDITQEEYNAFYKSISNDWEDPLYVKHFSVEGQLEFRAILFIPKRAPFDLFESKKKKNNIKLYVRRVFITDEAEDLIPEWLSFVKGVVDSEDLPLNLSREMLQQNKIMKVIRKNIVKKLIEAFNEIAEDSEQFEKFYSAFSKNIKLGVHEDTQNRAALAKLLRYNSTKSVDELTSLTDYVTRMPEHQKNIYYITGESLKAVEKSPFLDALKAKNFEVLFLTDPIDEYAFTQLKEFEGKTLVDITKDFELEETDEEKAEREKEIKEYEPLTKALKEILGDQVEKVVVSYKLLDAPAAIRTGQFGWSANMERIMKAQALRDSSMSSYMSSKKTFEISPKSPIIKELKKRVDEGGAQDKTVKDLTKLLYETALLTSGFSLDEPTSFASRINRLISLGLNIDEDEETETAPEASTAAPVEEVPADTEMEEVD

As a reminder, the IC50 is the concentration that inhibits the measured activity by half. Low values mean higher potency, high ones lower potency. Take `Oc1cc(O)c(-c2n[nH]cc2N2CCNCC2)cc1Cl` [Example 2, 4-Chloro-6-(4-piperazin-1-yl-1H-pyrazol-3-yl)-benzene-1,3-diol]: the concentration for half-maximal inhibition (IC50) in experiment [1] and in experiment [2] was less than 50 µM throughout.
